± gives the standard deviation of the averaged measurements.

This assay concerns HS729. Kind of assay: relative viability vs DMSO control (72 h) (fraction); higher = more viable cells. In a few lines:
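A 5 µM positive control and 0.1% DMSO vehicle ran alongside sarcoma cell lines seeded in 384-well plates to reach 80–90% confluence. Serially diluted compound, 2.5 µl from source plates of 10 mM to 0.0002 mM, was added after 24 h, and the plates were held 72 h at 37 °C, 5% CO2. Relative viability was worked out from ATPLite readings as percent growth averaged over up to triplicate wells. The values were rescaled so that 1 is full and 0 is none.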

On to `Cn1cnc2c(F)c(Nc3ccc(Br)cc3F)c(C(=O)NOCCO)cc21` [Binimetinib], for which the relative viability worked out at 1.07 ± 0.013 (0.00017 µM); 1.05 ± 0.063 (0.00051 µM); 1.06 ± 0.12 (0.00152 µM); 1.01 ± 0.077 (0.00457 µM); 0.986 ± 0.035 (0.01372 µM); 0.933 ± 0.052 (0.04115 µM). Besides, the relative viability is 0.898 ± 0.019 (0.1235 µM); 0.906 ± 0.023 (0.3704 µM); 0.906 ± 0.046 (1.111 µM); 0.856 ± 0.013 (3.333 µM); 0.811 ± 0.012 (10 µM).

`C=CC(=O)Nc1cccc(Oc2nc(Nc3ccc(N4CCN(C)CC4)cc3)nc3ccsc23)c1` [Olmutinib] registered a relative viability (0.00017 µM) of 1.02 ± 0.095; a relative viability (0.00051 µM) of 1.03 ± 0.1; a relative viability (0.00152 µM) of 0.996 ± 0.094; a relative viability (0.00457 µM) of 0.988 ± 0.07; a relative viability (0.01372 µM) of 0.922 ± 0.05; a relative viability (0.04115 µM) of 0.968 ± 0.11. In addition, the relative viability by setting is: (0.1235 µM) 0.958 ± 0.093; (0.3704 µM) 0.904 ± 0.097; (1.111 µM) 0.925 ± 0.079; (3.333 µM) 0.887 ± 0.051; (10 µM) 0.713 ± 0.059.

In the case of `CN1CCN(c2ccc3nc(-c4c(N)c5c(F)cccc5[nH]c4=O)[nH]c3c2)CC1` [Dovitinib], the relative viability came out at 1.09 ± 0.058 (0.00017 µM); 1.03 ± 0.036 (0.00051 µM); 1.09 ± 0.027 (0.00152 µM); 1.04 ± 0.061 (0.00457 µM); 1.05 ± 0.079 (0.01372 µM); 1 ± 0.026 (0.04115 µM). Moreover, the relative viability turned out to be 0.968 ± 0.083 (0.1235 µM); 0.832 ± 0.059 (0.3704 µM); 0.62 ± 0.025 (1.111 µM); 0.41 ± 0.066 (3.333 µM); 0.264 ± 0.034 (10 µM).

As for `O=C(Cc1ccc(-c2ccc(OCCN3CCOCC3)cc2)cn1)NCc1ccccc1` [KX2-391], the relative viability is, setting by setting: (0.00017 µM) 1.09 ± 0.061; (0.00051 µM) 1.02 ± 0.096; (0.00152 µM) 0.943 ± 0.046; (0.00457 µM) 0.959 ± 0.069; (0.01372 µM) 0.912 ± 0.019; (0.04115 µM) 0.792 ± 0.064. Moreover, the relative viability runs as follows: (0.1235 µM) 0.623 ± 0.018; (0.3704 µM) 0.562 ± 0.024; (1.111 µM) 0.521 ± 0.029; (3.333 µM) 0.501 ± 0.048; (10 µM) 0.475 ± 0.019.

Take `C[C@@H]1COCCN1c1cc(-c2ccnn2C)c2ccnc(-c3ccn[nH]3)c2n1`: the relative viability (0.00017 µM) was determined as 0.945 ± 0.068; the relative viability (0.00051 µM) stood at 0.894 ± 0.045; the relative viability (0.00152 µM) turned out to be 0.92 ± 0.071; the relative viability (0.00457 µM) worked out at 0.873 ± 0.041; the relative viability (0.01372 µM) was found to be 0.849 ± 0.036; the relative viability (0.04115 µM) came out at 0.804 ± 0.04. Also, the relative viability reads like this: (0.1235 µM) 0.681 ± 0.019; (0.3704 µM) 0.634 ± 0.018; (1.111 µM) 0.469 ± 0.017; (3.333 µM) 0.403 ± 0.033; (10 µM) 0.373 ± 0.012.

Regarding `CNC(=O)c1cc(Oc2ccc(NC(=O)Nc3ccc(Cl)c(C(F)(F)F)c3)c(F)c2)ccn1` [Regorafenib], the relative viability came to 1.08 ± 0.027 (0.00017 µM); 1.07 ± 0.04 (0.00051 µM); 1.03 ± 0.048 (0.00152 µM); 1.02 ± 0.046 (0.00457 µM); 0.945 ± 0.093 (0.01372 µM); 0.9469 ± 0.0076 (0.04115 µM). Moreover, the relative viability amounted to 0.98 ± 0.069 (0.1235 µM); 0.845 ± 0.014 (0.3704 µM); 0.824 ± 0.039 (1.111 µM); 0.809 ± 0.014 (3.333 µM); 0.651 ± 0.014 (10 µM).

As to `Cc1ccc(NC(=O)c2ccc(CN3CCN(C)CC3)cc2)cc1Nc1nc(-c2cccnc2)cs1` [Masitinib], the relative viability by setting is: (0.00017 µM) 1.06 ± 0.064; (0.00051 µM) 1.06 ± 0.043; (0.00152 µM) 0.984 ± 0.066; (0.00457 µM) 1.03 ± 0.085; (0.01372 µM) 1.03 ± 0.037; (0.04115 µM) 1.04 ± 0.063. Further, the relative viability is, setting by setting: (0.1235 µM) 0.969 ± 0.038; (0.3704 µM) 0.913 ± 0.04; (1.111 µM) 0.851 ± 0.054; (3.333 µM) 0.576 ± 0.018; (10 µM) 0.139 ± 0.022.

With `CNC(=O)c1ccc(-c2cnc3ncc(Cc4ccc5ncccc5c4)n3n2)cc1F` [Capmatinib], the relative viability is, setting by setting: (0.00017 µM) 0.949 ± 0.061; (0.00051 µM) 0.94 ± 0.025; (0.00152 µM) 0.945 ± 0.027; (0.00457 µM) 0.956 ± 0.053; (0.01372 µM) 0.935 ± 0.021; (0.04115 µM) 0.956 ± 0.023. Moreover, the relative viability was 0.949 ± 0.029 (0.1235 µM); 0.921 ± 0.054 (0.3704 µM); 0.924 ± 0.043 (1.111 µM); 0.953 ± 0.087 (3.333 µM); 0.906 ± 0.066 (10 µM).

On to `CCCS(=O)(=O)Nc1ccc(F)c(C(=O)c2c[nH]c3ncc(-c4ccc(Cl)cc4)cc23)c1F` [Vemurafenib], for which the relative viability came to 0.9411 ± 0.0078 (0.00017 µM); 0.97 ± 0.024 (0.00051 µM); 0.949 ± 0.051 (0.00152 µM); 0.949 ± 0.05 (0.00457 µM); 0.962 ± 0.021 (0.01372 µM); 0.915 ± 0.03 (0.04115 µM). Besides, the relative viability was found to be 0.955 ± 0.031 (0.1235 µM); 0.908 ± 0.013 (0.3704 µM); 0.9276 ± 0.0087 (1.111 µM); 0.856 ± 0.065 (3.333 µM); 0.73 ± 0.016 (10 µM).

The values are drawn from the supplement of paper PMC10883282.
